The results in this text go back to ChEMBL document CHEMBL1139737, “Distachyasin: A new antioxidant metabolite from the leaves of Carex distachya” (Bioorg Med Chem Lett, 2006).

What all share (format): functional
Assay [1] in a line: Hydrogen peroxide radical scavenging activity at 0.2 mg/ml.
The nature of assay [2]: Hydrogen peroxide radical scavenging activity at 0.1 mg/ml.
Assay [3] is described as follows: Inhibition of TBARS formation at 0.5 mg/ml.
Assay [4] in a line: Nitric oxide radical scavenging activity.
Assay [5] in a line: Superoxide radical scavenging activity at 0.5 mg/ml.
The nature of assay [6]: Nitric oxide radical scavenging activity assessed as reduction in nitrite concentration at 0.5 mg/ml. The arrangement: scale not given: the % may be the effect or the level left.
Assay [7] in a line: Inhibition of TBARS formation.

Regarding `COC1=CC(=O)[C@@]2(O)C[C@H]3[C@H](c4ccccc4C3(C)C)[C@@H](O)C2=C1`, the Activity in assay [1] was 39%; in assay [2], 32%; in assay [4], “Dose-dependent effect”; in assay [5], 60%; in assay [6], 10.7%; in assay [7], “Dose-dependent effect”. Also, in assay [3], the inhibition – broadly, the percentage by which the read-out fell short of the control – was 59%.
